Measured values reported in ChEMBL document CHEMBL1201862, “PubChem BioAssay data set” (2004).
Activity calls are given as the source filed them.

Legend:
[1] = THP-1 cell cytotoxicity, dose response, cytotoxicity control for non-replicating M. tuberculosis project (AID 489025); format: functional
[2] = HepG2 cell cytotoxicity, dose response, cytotoxicity control for non-replicating M. tuberculosis project (AID 489018); format: functional; settings: Mycobacterium tuberculosis
cells = format: functional
[3] = target: DNA dC->dU-editing enzyme APOBEC-3G (Homo sapiens, UniProt Q9HC16); test: Dose Response confirmation of small molecule APOBEC3G DNA Deaminase Inhibitors via a fluorescence-based single-stranded DNA deaminase assay. [Related pubchem assays (depositor defined):AID493012, AID493028]; format: functional
DNA dC->dU-editing enzyme APOBEC-3G, sequence (Q9HC16 whole entry): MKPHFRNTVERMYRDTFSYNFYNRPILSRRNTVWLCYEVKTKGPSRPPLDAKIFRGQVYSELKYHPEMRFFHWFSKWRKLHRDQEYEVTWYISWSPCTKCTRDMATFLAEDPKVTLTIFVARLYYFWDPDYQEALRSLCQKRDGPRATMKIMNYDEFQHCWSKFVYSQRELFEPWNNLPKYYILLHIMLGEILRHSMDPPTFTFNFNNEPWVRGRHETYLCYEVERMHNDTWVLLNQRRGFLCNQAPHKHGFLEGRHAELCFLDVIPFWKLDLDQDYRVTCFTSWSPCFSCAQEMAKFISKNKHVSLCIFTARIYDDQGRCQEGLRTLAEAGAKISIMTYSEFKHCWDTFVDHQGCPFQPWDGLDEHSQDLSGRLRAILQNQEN

[4] = target: T1, Short transient receptor potential channel 4 (Mus musculus, UniProt Q9QUQ5); test: calcium entry via TRPC4 opening agents – cell-based, HEK293 TRPC4/mu-opioid, Fluo-4 calcium, dose response (AID 434937); format: functional
T1 sequence (Q9QUQ5 whole entry): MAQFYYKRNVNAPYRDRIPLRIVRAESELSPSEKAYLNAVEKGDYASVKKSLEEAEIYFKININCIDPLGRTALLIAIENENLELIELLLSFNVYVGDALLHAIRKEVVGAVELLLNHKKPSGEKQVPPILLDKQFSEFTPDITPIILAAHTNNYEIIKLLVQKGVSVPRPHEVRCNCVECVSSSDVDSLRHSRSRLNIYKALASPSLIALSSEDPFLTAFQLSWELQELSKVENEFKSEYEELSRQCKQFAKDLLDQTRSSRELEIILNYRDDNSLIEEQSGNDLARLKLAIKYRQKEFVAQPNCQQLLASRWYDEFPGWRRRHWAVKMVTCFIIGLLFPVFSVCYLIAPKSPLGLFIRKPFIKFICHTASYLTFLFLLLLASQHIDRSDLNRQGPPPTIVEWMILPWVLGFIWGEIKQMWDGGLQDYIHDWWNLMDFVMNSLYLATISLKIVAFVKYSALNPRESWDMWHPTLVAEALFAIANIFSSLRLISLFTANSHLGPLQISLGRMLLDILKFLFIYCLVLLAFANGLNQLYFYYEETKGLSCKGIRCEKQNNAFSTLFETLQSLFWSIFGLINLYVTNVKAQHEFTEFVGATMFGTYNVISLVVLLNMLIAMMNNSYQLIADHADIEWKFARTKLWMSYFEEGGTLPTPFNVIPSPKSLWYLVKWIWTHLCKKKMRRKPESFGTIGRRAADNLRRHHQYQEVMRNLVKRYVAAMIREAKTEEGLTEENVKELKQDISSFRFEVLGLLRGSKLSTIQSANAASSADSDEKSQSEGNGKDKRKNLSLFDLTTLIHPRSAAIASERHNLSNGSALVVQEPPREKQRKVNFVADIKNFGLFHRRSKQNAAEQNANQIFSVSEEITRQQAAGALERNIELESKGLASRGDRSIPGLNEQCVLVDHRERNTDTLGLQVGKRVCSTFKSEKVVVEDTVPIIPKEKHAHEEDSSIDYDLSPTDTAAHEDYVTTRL

Vero = test: cells; format: functional; settings: Chlorocebus sabaeus
[5] = luciferase reporter signal suppression in cells – H4 neuroglioma cells, luminescence, dose response (AID 1990); format: functional, cell-based
BJ [6] = test: BJ-TERT fibroblast viability loss – cell-based, RAS-independent, luminescence, dose response (AID 1933); format: functional; settings: Homo sapiens
[7] = Luminescence Cell-Based Dose Response HTS to Identify Inhibitors of 5'UTR Stem-Loop Driven Prion Protein mRNA Translation in H4 Neuroglioblastoma Cells. [Related pubchem assays: 1827 (Project Summary), 1813 (Primary HTS)]; format: functional
[8] = alpha-synuclein stem-loop luciferase translation blockers – H4 neuroglioma cells, luminescence, confirmation (AID 1988); format: functional, cell-based
BJ [9] = test: cells; format: functional, cell-based; settings: Homo sapiens
[10] = Luminescence-based dose response cell-based high throughput screening assay for cytotoxic compounds using the IEC-6 intestinal epithelial cell line. [Related pubchem assays: 1858 (Summary AID.), 1825 (Counterscreen.), 1907 (Confirmation screen.)]; format: functional
BJ [11] = test: BJ-TERT-LT-ST fibroblast viability loss – cell-based, RAS-independent, luminescence, dose response (AID 1935); format: functional; settings: Homo sapiens;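 also: BJ fibroblasts immortalized with TERT plus LT and ST oncogenes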
[12] = DRD fibroblast viability loss – cell-based, non-viral oncogenic, luminescence, dose response (AID 1934); format: functional; settings: Homo sapiens
[13] = target: T2, Replicative DNA helicase DnaB (Mycobacterium tuberculosis, UniProt P9WMR3); test: DnaB intein splicing inhibitors, dose response, biochemical, cell-free fluorescence (AID 449749); format: functional
T2 sequence (P9WMR3 whole entry): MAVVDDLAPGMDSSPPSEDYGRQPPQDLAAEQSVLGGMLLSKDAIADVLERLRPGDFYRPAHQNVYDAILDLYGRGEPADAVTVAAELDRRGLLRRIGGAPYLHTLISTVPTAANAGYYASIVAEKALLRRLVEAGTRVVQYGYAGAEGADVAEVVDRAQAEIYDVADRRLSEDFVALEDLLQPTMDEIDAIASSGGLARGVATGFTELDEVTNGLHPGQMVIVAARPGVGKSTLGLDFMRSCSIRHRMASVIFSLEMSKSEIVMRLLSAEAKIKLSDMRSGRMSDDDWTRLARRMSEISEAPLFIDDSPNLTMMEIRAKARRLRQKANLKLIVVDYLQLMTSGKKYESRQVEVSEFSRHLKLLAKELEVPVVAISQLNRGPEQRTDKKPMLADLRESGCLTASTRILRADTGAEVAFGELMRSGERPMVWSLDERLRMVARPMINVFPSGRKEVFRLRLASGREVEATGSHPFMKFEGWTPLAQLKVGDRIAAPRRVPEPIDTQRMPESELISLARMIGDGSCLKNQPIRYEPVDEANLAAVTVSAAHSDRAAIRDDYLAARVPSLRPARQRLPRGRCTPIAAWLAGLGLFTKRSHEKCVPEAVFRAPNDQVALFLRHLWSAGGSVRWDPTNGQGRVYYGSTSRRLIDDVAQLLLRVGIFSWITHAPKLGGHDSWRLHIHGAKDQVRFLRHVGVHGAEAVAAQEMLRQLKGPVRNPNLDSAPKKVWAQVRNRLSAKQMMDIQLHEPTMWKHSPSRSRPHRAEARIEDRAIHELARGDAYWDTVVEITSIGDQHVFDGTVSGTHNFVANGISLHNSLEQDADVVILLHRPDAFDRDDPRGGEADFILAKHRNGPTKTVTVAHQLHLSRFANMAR

BJ [14] = test: growth inhibition of engineered Ras-driven BJ cells – cell-based, alamar blue fluorescence, cherrypicked samples, dose response (AID 2631); format: functional; settings: Homo sapiens;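 also: confirmatory dose-response assay in RAS-dependent BJ fibroblasts engineered with TERT, LT and ST, with cytotoxicity read by fluorescence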
Protein RecA = target: T3, Protein RecA (Mycobacterium tuberculosis, UniProt P9WHJ3); test: Fluorescence Cell-Free Homogeneous Dose Retest to Identify Inhibitors of RecA-Intein Splicing Activity. [Related pubchem assays (depositor defined):AID2097, AID2223, AID489010, AID492950]; format: functional
T3 sequence (P9WHJ3 whole entry): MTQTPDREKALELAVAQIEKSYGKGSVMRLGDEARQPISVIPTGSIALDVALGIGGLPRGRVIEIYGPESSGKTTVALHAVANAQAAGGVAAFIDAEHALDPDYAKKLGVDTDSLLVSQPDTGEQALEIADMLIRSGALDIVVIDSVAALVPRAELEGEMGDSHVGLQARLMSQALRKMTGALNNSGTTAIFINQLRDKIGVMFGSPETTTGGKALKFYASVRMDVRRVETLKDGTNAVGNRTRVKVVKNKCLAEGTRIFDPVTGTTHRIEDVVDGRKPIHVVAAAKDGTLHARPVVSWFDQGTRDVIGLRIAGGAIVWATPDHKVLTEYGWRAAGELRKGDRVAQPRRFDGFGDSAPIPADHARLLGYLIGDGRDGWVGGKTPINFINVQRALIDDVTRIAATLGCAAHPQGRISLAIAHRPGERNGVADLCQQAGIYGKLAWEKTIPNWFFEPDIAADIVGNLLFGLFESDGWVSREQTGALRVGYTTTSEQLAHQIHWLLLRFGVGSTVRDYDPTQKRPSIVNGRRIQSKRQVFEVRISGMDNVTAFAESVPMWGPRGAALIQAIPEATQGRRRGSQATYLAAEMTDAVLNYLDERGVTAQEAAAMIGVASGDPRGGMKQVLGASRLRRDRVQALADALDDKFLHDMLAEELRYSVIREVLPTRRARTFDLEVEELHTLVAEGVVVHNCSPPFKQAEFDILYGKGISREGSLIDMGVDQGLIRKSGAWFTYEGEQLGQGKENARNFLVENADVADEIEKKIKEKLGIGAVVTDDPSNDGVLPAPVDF

INS1 = test: INS-1E survival protection against cytokine death – cell-based, luminescence, retest, dose response (AID 449756); format: functional; settings: Rattus norvegicus;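 also: cell death triggered by IL-1 beta plus TNF-alpha plus IFN-gamma mixture; protective hits raise ATP signal compared with cytokine alone wells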
Paired box protein Pax-8 = Paired box protein Pax-8 (Homo sapiens, UniProt Q06710); test: PAX8 transcriptional activity inhibition in RMG-I – RMG-I cells, luciferase, cherry-pick, dose response (AID 687027); format: functional, cell-based;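 also: luciferase reporter driven by Pax8 target thyroperoxidase promoter measured by SteadyGlo luminescence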
Paired box protein Pax-8, sequence (Q06710 whole entry): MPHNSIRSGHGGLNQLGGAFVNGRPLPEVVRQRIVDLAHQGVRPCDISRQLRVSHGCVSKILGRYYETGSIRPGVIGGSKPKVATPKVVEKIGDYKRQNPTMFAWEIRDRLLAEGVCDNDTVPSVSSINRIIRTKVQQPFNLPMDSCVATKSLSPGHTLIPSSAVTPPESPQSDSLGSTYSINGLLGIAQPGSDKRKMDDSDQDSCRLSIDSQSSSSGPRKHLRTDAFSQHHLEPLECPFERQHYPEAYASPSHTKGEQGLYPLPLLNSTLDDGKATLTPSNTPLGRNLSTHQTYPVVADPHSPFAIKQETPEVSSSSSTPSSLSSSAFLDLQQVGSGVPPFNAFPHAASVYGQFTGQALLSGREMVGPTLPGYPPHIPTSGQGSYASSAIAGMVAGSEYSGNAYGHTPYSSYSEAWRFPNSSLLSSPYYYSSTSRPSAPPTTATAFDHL

[15] = general cell-killing toxicity readout – plate reader, dry powder samples, cytotoxicity control for PAX8 inhibitor project, dose response (AID 743021); format: functional, cell-based
[16] = Trypanosoma cruzi growth suppression in host cells – NIH3T3 host cells, beta-gal luminescence, confirmation (AID 2044); format: functional, cell-based;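 also: intracellular parasites grown in NIH/3T3 mouse fibroblasts as host cells; luminescent beta-galactosidase reporter signal from transgenic T. cruzi replicating inside host cells; inhibitors lower the luminescence signal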
[17] = NIH3T3 cell viability loss – ATP luminescence, mouse fibroblasts, counter-screen, dose response (AID 2010); format: functional, cell-based;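 also: cells exposed to compound for about 90 hours before reading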
[18] = microbe, parasite or virus in culture; format: functional; settings: Mycobacterium tuberculosis
[19] = Vero E6 cell cytotoxicity, dose response, cytotoxicity control for non-replicating M. tuberculosis project, secondary assay (AID 492998); format: functional, VeroE6; settings: Vero C1008
[20] = target: Voltage-dependent T-type calcium channel subunit alpha-1H (Homo sapiens, UniProt O95180); format: functional;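 also: channel activity triggered by adding a high calcium stimulation buffer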
Voltage-dependent T-type calcium channel subunit alpha-1H, sequence (O95180 whole entry): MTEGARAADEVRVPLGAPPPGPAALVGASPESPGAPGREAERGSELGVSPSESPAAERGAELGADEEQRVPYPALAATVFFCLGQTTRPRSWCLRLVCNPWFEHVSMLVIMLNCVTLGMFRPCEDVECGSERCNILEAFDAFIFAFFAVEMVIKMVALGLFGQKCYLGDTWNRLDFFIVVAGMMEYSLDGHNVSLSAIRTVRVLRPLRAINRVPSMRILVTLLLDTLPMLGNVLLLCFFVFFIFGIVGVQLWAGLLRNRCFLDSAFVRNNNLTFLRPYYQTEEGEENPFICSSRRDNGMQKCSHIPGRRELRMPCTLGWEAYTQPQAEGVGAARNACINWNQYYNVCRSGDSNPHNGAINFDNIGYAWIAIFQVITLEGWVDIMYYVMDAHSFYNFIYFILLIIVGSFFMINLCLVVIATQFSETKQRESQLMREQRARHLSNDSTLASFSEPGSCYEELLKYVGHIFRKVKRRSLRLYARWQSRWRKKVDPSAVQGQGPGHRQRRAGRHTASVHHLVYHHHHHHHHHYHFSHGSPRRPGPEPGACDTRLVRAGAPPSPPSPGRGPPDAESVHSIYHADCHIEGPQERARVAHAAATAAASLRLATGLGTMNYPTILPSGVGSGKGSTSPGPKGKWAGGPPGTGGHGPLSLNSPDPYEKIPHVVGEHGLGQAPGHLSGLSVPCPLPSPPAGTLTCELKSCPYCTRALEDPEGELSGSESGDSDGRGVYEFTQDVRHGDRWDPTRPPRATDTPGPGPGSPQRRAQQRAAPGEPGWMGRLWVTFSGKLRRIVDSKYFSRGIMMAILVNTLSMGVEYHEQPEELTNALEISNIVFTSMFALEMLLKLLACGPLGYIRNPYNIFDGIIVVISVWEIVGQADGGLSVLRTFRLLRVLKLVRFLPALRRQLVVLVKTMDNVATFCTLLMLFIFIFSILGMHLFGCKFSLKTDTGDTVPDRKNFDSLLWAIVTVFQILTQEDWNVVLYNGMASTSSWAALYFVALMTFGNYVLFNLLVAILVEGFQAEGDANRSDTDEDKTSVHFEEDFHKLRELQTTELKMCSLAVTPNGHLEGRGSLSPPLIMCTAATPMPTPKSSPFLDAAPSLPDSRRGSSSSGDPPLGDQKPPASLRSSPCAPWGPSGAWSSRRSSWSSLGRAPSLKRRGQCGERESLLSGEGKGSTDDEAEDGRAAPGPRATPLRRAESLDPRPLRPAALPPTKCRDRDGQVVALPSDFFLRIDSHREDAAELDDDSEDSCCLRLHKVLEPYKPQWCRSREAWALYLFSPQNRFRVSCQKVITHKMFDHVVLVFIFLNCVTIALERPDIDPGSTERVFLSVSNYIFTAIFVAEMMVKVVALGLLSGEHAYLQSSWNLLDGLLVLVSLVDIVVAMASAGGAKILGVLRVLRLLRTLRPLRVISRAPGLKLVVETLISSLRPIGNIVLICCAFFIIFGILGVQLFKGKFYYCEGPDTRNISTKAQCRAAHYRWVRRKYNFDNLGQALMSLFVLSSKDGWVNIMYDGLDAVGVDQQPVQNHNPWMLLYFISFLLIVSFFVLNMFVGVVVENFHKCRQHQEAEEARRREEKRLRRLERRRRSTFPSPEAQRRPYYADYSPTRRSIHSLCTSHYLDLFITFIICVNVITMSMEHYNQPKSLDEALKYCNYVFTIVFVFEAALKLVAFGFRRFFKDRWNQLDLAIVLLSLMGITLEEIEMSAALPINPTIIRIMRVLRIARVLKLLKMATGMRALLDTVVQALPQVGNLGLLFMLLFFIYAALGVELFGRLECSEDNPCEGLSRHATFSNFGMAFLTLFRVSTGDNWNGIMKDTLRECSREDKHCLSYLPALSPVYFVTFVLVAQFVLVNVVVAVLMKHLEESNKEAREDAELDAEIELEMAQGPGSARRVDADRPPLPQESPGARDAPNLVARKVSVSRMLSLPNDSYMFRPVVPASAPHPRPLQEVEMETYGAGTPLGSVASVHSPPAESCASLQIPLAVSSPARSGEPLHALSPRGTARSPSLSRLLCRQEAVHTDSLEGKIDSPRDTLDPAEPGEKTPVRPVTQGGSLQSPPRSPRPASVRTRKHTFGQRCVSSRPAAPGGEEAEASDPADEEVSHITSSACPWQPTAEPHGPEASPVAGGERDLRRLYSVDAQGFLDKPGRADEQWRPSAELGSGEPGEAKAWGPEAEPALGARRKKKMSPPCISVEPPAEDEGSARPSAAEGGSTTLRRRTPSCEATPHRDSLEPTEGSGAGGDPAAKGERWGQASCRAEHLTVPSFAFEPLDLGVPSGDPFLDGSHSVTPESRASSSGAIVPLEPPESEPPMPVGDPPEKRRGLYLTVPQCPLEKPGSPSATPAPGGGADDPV

[21] = target: Glyceraldehyde-3-phosphate dehydrogenase (Homo sapiens, UniProt P04406)
Glyceraldehyde-3-phosphate dehydrogenase, sequence (P04406 whole entry): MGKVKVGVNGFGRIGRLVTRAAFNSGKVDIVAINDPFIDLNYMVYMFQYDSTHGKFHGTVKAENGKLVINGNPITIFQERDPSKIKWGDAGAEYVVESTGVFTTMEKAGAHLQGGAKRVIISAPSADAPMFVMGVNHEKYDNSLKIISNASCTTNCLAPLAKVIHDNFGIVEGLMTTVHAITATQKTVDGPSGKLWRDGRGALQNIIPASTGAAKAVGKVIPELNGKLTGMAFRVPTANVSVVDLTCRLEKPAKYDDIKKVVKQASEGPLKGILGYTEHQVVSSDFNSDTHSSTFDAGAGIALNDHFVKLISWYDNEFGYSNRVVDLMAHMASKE

[22] = target: Alkaline phosphatase, placental type (Homo sapiens, UniProt P05187); test: human placental alkaline phosphatase inhibition – biochemical, luminescence, confirmation (AID 1512); format: functional
Alkaline phosphatase, placental type, sequence (P05187 whole entry): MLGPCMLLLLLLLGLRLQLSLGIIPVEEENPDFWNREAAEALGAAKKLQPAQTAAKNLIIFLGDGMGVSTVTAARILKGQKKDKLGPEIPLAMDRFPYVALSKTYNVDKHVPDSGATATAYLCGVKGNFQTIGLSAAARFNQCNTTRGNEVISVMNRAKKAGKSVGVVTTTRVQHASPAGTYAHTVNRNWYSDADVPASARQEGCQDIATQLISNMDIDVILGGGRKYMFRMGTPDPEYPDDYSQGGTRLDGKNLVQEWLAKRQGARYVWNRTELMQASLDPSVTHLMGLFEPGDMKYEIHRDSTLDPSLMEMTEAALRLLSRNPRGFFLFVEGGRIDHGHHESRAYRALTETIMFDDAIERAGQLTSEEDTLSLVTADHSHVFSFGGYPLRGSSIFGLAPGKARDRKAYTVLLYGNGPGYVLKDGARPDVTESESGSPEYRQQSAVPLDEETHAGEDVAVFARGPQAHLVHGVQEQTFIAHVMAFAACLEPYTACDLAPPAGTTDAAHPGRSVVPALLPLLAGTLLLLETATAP

[23] = target: T4, Alkaline phosphatase, tissue-nonspecific isozyme (Homo sapiens, UniProt P05186); test: potency against alkaline phosphatase TNAP – biochemical, luminescent, dose response, SAR follow-up (AID 1056)
T4 sequence (P05186 whole entry): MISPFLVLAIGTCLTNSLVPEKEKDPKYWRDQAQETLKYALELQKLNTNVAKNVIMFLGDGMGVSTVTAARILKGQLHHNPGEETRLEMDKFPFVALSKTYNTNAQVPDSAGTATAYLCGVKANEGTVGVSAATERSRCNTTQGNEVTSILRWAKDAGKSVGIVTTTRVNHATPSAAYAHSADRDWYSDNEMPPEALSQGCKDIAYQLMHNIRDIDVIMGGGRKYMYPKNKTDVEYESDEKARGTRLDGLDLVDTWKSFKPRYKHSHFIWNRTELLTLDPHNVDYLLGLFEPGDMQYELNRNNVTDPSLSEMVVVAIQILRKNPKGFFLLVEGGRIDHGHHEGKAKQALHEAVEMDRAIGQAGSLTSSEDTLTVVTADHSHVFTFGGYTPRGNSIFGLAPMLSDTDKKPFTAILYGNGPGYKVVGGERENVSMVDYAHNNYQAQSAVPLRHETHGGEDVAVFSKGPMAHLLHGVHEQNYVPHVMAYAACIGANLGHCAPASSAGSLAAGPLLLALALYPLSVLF

SMILES: CC(/C=C\C=C\c1ccccc1)=N\NC(=O)c1cncc(Br)c1
- CC50 [1]: 35 µM (active)
- CC50 [2]: > 20 µM (active)
- IC50 (cells): 12 µM (active)

SMILES: Cc1ccc(C(=O)NNC(=S)NC(=O)COc2ccccc2)cc1
- IC50 [3]: 36.3 µM (active)
- EC50 [4]: 1.5 µM (active)
- CC50 (Vero): > 25 µM (active)

SMILES: COc1ccc(C2C(O)C(c3c[nH]c4ccccc34)=NN2C(=O)CCl)cc1 (stereo not drawn)
- EC50 [5]: > 30 µM (not active)
- EC50 (BJ [6]): 0.622 µM (inconclusive)
- EC50 [7]: 11.1 µM (active)
- EC50 [8]: 8.2 µM (active)
- EC50 (BJ [9]): 2.65 µM (inconclusive)
- IC50 [10]: 1.49 µM (active)
- EC50 (BJ [11]): 1.13 µM (inconclusive)
- EC50 [12]: 1.37 µM (inconclusive)
- AC50 [13]: 2.56 µM (active)
- EC50 (BJ [14]): 0.443 µM (active)
- EC50 (Protein RecA): 0.582 µM (active)
- AC50 (INS1): 2.19 µM (active)
- AC50 (Paired box protein Pax-8): 0.65 µM (active)
- AC50 [15]: 0.954 µM (active)

SMILES: CCN1CCN(c2ccc(S(=O)(=O)N3CCCCC3)cc2NC(=O)COc2ccccc2)CC1
- EC50 [16]: 1.01 µM (active)
- EC50 [17]: > 60 µM (not active)
- EC50 [4]: 6.68 µM (active)

SMILES: CN1CC=C(/C=C/c2ccc(-c3ccccc3)cc2)CC1
- EC50 [16]: 2.12 µM (active)
- CC50 [18]: 8.12 µM (active)
- EC50 [17]: 8.86 µM (active)
- CC50 [1]: 23.7 µM (active)
- CC50 [2]: 12 µM (active)
- CC50 [19]: 9.99 µM (active)
- IC50 (cells): 26.6 µM (active)

SMILES: CCN(CCNC(=O)CS(=O)(=O)Cc1nc(-c2cccc(OC)c2)oc1C)c1ccccc1
- EC50 [20]: 1.49 µM (active)

SMILES: O=C(CSc1nnc(-c2ccccc2Cl)[nH]1)c1ccc(O)c(O)c1
- IC50 [21]: > 100 µM (not active)
- IC50 [22]: 8.15 µM (active)
- IC50 [23]: 1.36 µM (active)

SMILES: Cc1ccc(C(=O)Nc2ccc3c(c2)OCO3)cc1S(=O)(=O)N1CCCCC1
- EC50 [20]: 4.78 µM (active)

SMILES: Cc1cc(Nc2ccccc2)n(-c2ccc(Br)cc2)n1
- EC50 [20]: 2.24 µM (active)

SMILES: O=C(c1cc(-c2cc(F)c(Cl)cc2Cl)n[nH]1)N1CCCCCC1
- IC50 [21]: > 100 µM (not active)
- IC50 [22]: > 100 µM (inactive)
- IC50 [23]: > 100 µM (inactive)

SMILES: CC1(C)CC(=O)c2c(-c3cccc(Br)c3)n[nH]c2C1
- IC50 [21]: > 100 µM (not active)
- IC50 [22]: > 100 µM (inactive)
- IC50 [23]: > 100 µM (inactive)

SMILES: Cc1cc(C)cc(NC(=S)N2CCN(c3ncc(C(F)(F)F)cc3Cl)CC2)c1
- EC50 [4]: 2.66 µM (active)
